Experimental data as given in PubChem BioAssay AID248 (DTP/NCI, 2004).
Inconclusive results and toxic doses are left out. Rule as the data show it: active = T/C of 150% or more; inactive = T/C below 125%.

Test system: L1210 leukemia ip in BDF1 mice, survival T/C
Assay: NCI In Vivo Anticancer Drug Screen. Data for tumor model L1210 Leukemia (intraperitoneal) in B6D2F1 (BDF1) mice
Conditions: endpoint: mean survival time, higher = longer survival
In short: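 Tumor cells were implanted, animals were treated, and survival was followed. The result divides the treated measurement by the vehicle-control measurement.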

[1] = dose: 100.0 mg/kg/injection, schedule: Q01DX009 (ip), vehicle: saline with Tween-80
[2] = dose: 100.0 mg/kg/injection, schedule: Q04DX002 (ip), vehicle: Klucel (hydroxypropylcellulose) (HPC)
[3] = dose: 100.0 mg/kg/injection, schedule: Q04DX003 (ip), vehicle: saline with Tween-80
[4] = dose: 200.0 mg/kg/injection, schedule: Q01DX009 (ip), vehicle: saline with Tween-80
[5] = dose: 200.0 mg/kg/injection, schedule: Q04DX002 (ip), vehicle: Klucel (hydroxypropylcellulose) (HPC)
[6] = dose: 200.0 mg/kg/injection, schedule: Q04DX003 (ip), vehicle: saline with Tween-80
[7] = dose: 400.0 mg/kg/injection, schedule: Q01DX009 (ip), vehicle: saline with Tween-80
[8] = dose: 400.0 mg/kg/injection, schedule: Q04DX002 (ip), vehicle: Klucel (hydroxypropylcellulose) (HPC)
[9] = dose: 400.0 mg/kg/injection, schedule: Q04DX003 (ip), vehicle: saline with Tween-80
[10] = dose: 100.0 mg/kg/injection, schedule: Q01DX001 (ip), vehicle: carboxymethylcellulose (CMC)
[11] = dose: 200.0 mg/kg/injection, schedule: Q01DX001 (ip), vehicle: carboxymethylcellulose (CMC)
[12] = dose: 400.0 mg/kg/injection, schedule: Q01DX001 (ip), vehicle: carboxymethylcellulose (CMC)
[13] = dose: 100.0 mg/kg/injection, schedule: Q01DX001 (ip), vehicle: saline
[14] = dose: 200.0 mg/kg/injection, schedule: Q01DX001 (ip), vehicle: saline
[15] = dose: 400.0 mg/kg/injection, schedule: Q01DX001 (ip), vehicle: saline
[16] = dose: 100.0 mg/kg/injection, schedule: Q01DX009 (ip), vehicle: Klucel (hydroxypropylcellulose) (HPC)
[17] = dose: 200.0 mg/kg/injection, schedule: Q01DX009 (ip), vehicle: Klucel (hydroxypropylcellulose) (HPC)
[18] = dose: 400.0 mg/kg/injection, schedule: Q01DX009 (ip), vehicle: Klucel (hydroxypropylcellulose) (HPC)
[19] = dose: 50.0 mg/kg/injection, schedule: Q01DX001 (ip), vehicle: saline

Measured: T/C

NC(Cc1ccc(O)cc1)C(=O)OCc1ccccc1 (stereo unspecified)
inactive: [1] 88 % of control | [2] 104 % of control | [3] 97 % of control | [4] 94 % of control | [5] 96 % of control | [6] 94 % of control | [7] 91 % of control | [8] 96 % of control | [9] 103 % of control

CC(=O)Nc1ccc(C(=O)C[n+]2ccc3ccccc3c2)cc1
inactive: dose: 100.0 mg/kg/injection, schedule: Q04DX003 (ip), vehicle: Klucel (hydroxypropylcellulose) (HPC) 97 % of control | dose: 200.0 mg/kg/injection, schedule: Q04DX003 (ip), vehicle: Klucel (hydroxypropylcellulose) (HPC) 92 % of control | dose: 400.0 mg/kg/injection, schedule: Q04DX003 (ip), vehicle: Klucel (hydroxypropylcellulose) (HPC) 94 % of control

CCOC(=O)Nc1cc(NCC(O)CN(C)c2ccccc2)c([N+](=O)[O-])c(N)n1 (stereo unspecified)
inactive: [10] 95 % of control | [11] 95 % of control | [12] 92 % of control

COC(=O)c1c2c(c3c(c1C(=O)OC)CCC3)CCC2
inactive: [13] 98 % of control | [14] 95 % of control | [15] 92 % of control

CNCCc1ccccc1
inactive: [13] 107 % of control | [14] 108 % of control

CCOC(=O)C(CCN(C)Cc1ccccc1)C(=O)OCC
inactive: [16] 97 % of control | [17] 100 % of control | [18] 106 % of control

CC(=O)OC1C=CCC2C(=O)c3cc4ccccc4cc3C(=O)C12 (stereo unspecified)
inactive: dose: 100.0 mg/kg/injection, schedule: Q01DX001 (ip), vehicle: other 100 % of control | dose: 200.0 mg/kg/injection, schedule: Q01DX001 (ip), vehicle: other 104 % of control

CCN(CC)C(=O)Oc1ccc(OC)cc1
inactive: [1] 109 % of control | [4] 96 % of control

CC(=O)C(CCC#N)(CCC#N)c1ccccc1
inactive: dose: 50.0 mg/kg/injection, schedule: Q04DX002 (ip), vehicle: Klucel (hydroxypropylcellulose) (HPC) 121 % of control | [2] 101 % of control

CN(C)[S+](C)(=O)/C=C(/[O-])c1ccccc1 (stereo unspecified)
inactive: dose: 62.5 mg/kg/injection, schedule: Q01DX001 (ip), vehicle: saline 106 % of control | dose: 125.0 mg/kg/injection, schedule: Q01DX001 (ip), vehicle: saline 102 % of control | dose: 250.0 mg/kg/injection, schedule: Q01DX001 (ip), vehicle: saline 102 % of control

CCOC(CCC#N)c1ccc(C)cc1 (stereo unspecified)
inactive: [3] 113 % of control | dose: 118.0 mg/kg/injection, schedule: Q01DX009 (ip), vehicle: saline with Tween-80 108 % of control | [6] 98 % of control | dose: 235.0 mg/kg/injection, schedule: Q01DX009 (ip), vehicle: saline with Tween-80 97 % of control | [9] 95 % of control

Clc1ccc2ccc(Cl)cc2c1
inactive: [10] 103 % of control | [11] 95 % of control | [12] 94 % of control

CCCCCP(=S)(CCCC)CCCCC
inactive: [2] 98 % of control | [5] 94 % of control | [8] 94 % of control

C[CH2][Pb]([CH2]C)([CH2]C)[n]1ccnc1
inactive: [2] 95 % of control | [5] 95 % of control | [8] 100 % of control

CCN(CC)CCOC(=O)c1ccccc1N(c1ccccc1)c1ccccc1
inactive: dose: 25.0 mg/kg/injection, schedule: Q01DX009 (ip), vehicle: saline 98 % of control | dose: 50.0 mg/kg/injection, schedule: Q01DX009 (ip), vehicle: saline 98 % of control | dose: 62.5 mg/kg/injection, schedule: Q01DX015 (ip), vehicle: saline 91 % of control | [13] 92 % of control | dose: 100.0 mg/kg/injection, schedule: Q01DX009 (ip), vehicle: saline 98 % of control | dose: 100.0 mg/kg/injection, schedule: Q04DX003 (ip), vehicle: acetone 96 % of control | dose: 125.0 mg/kg/injection, schedule: Q01DX015 (ip), vehicle: saline 95 % of control | dose: 150.0 mg/kg/injection, schedule: Q01DX009 (ip), vehicle: acetone 96 % of control | [14] 103 % of control | [15] 98 % of control

O=c1cc(Cl)c(=O)[nH][nH]1
inactive: [1] 100 % of control | [3] 94 % of control | [4] 100 % of control | [6] 94 % of control | [7] 114 % of control | [9] 94 % of control

O=C1c2cccc(Cl)c2C(=O)c2c(NCCO)cccc21
inactive: dose: 100.0 mg/kg/injection, schedule: Q01DX001 (ip), vehicle: Klucel (hydroxypropylcellulose) (HPC) 96 % of control | dose: 200.0 mg/kg/injection, schedule: Q01DX001 (ip), vehicle: Klucel (hydroxypropylcellulose) (HPC) 101 % of control | dose: 400.0 mg/kg/injection, schedule: Q01DX001 (ip), vehicle: Klucel (hydroxypropylcellulose) (HPC) 97 % of control

CC(=O)Nc1ccc[n+](Cc2ccc(S(=O)(=O)F)cc2)c1
inactive: dose: 25.0 mg/kg/injection, schedule: Q04DX003 (ip), vehicle: Klucel (hydroxypropylcellulose) (HPC) 104 % of control | dose: 50.0 mg/kg/injection, schedule: Q04DX003 (ip), vehicle: Klucel (hydroxypropylcellulose) (HPC) 104 % of control

FC(Cl)C(F)(F)Br (stereo unspecified)
inactive: dose: 75.0 mg/kg/injection, schedule: Q01DX005 (ip), vehicle: saline 95 % of control | dose: 150.0 mg/kg/injection, schedule: Q01DX005 (ip), vehicle: saline 101 % of control | dose: 300.0 mg/kg/injection, schedule: Q01DX005 (ip), vehicle: saline 98 % of control | dose: 600.0 mg/kg/injection, schedule: Q01DX001 (ip), vehicle: acetone 101 % of control

CC(C)CC1NC(C)(C)N(CC(=O)O)C1=O (stereo unspecified)
inactive: [19] 88 % of control | [14] 99 % of control

COc1cc2c(cc1OC)Cc1cc(OC)c(OC)cc1Cc1cc(OC)c(OC)cc1C2
inactive: dose: 100.0 mg/kg/injection, schedule: Q04DX003 (ip), vehicle: saline 92 % of control | dose: 200.0 mg/kg/injection, schedule: Q04DX003 (ip), vehicle: saline 96 % of control | dose: 400.0 mg/kg/injection, schedule: Q04DX003 (ip), vehicle: saline 97 % of control

c1ccc(Cn2cnc3c2nnn2ncnc32)cc1
inactive: [10] 106 % of control | [11] 102 % of control | [12] 114 % of control

CCSC1C(OC(C)=O)OC(C(COC(C)=O)OC(C)=O)C1OC(C)=O (stereo unspecified)
inactive: dose: 100.0 mg/kg/injection, schedule: Q04DX003 (ip), vehicle: other 96 % of control | dose: 200.0 mg/kg/injection, schedule: Q04DX003 (ip), vehicle: other 96 % of control | dose: 400.0 mg/kg/injection, schedule: Q04DX003 (ip), vehicle: other 96 % of control

CC(COS(C)(=O)=O)(COS(C)(=O)=O)Cc1ccccc1
inactive: [16] 103 % of control | [17] 95 % of control | [18] 93 % of control

CC1(C)N=CN=C(N)N1c1ccc(CCC(=O)Nc2ccc(S(=O)(=O)F)cc2)c(Cl)c1
inactive: [3] 114 % of control | [6] 112 % of control | [9] 109 % of control

CCCCCCCCCCCCC(CC(=O)O)C(=O)N(CCO)CCO (stereo unspecified)
inactive: dose: 12.5 mg/kg/injection, schedule: Q01DX001 (ip), vehicle: saline 97 % of control | dose: 25.0 mg/kg/injection, schedule: Q01DX001 (ip), vehicle: saline 94 % of control | [19] 91 % of control | [14] 97 % of control

CCCCOP(=O)(/C=C\c1ccco1)OCCCC
inactive: dose: 25.0 mg/kg/injection, schedule: Q01DX009 (ip), vehicle: Klucel (hydroxypropylcellulose) (HPC) 91 % of control | dose: 50.0 mg/kg/injection, schedule: Q01DX009 (ip), vehicle: Klucel (hydroxypropylcellulose) (HPC) 97 % of control | [16] 92 % of control | dose: 100.0 mg/kg/injection, schedule: Q01DX009 (ip), vehicle: carboxymethylcellulose (CMC) 95 % of control

Cn1nc(C(N)=O)c2c(N)ncnc21
inactive: dose: 7.5 mg/kg/injection, schedule: Q04DX002 (ip), vehicle: Klucel (hydroxypropylcellulose) (HPC) 96 % of control | dose: 15.0 mg/kg/injection, schedule: Q01DX001 (ip), vehicle: carboxymethylcellulose (CMC) 98 % of control | dose: 15.0 mg/kg/injection, schedule: Q04DX002 (ip), vehicle: Klucel (hydroxypropylcellulose) (HPC) 92 % of control | dose: 30.0 mg/kg/injection, schedule: Q01DX001 (ip), vehicle: carboxymethylcellulose (CMC) 102 % of control | dose: 30.0 mg/kg/injection, schedule: Q04DX002 (ip), vehicle: Klucel (hydroxypropylcellulose) (HPC) 96 % of control
